Data: ChEMBL document CHEMBL1201862, “PubChem BioAssay data set” (2004)
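Cultured in 96-well plates, cells were exposed to test compound for 48 hours across five concentrations. At the GI50, growth is halved.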 Active and inactive are the calls of the source. Cut-off read from the data, not from the text of the source: active = GI50 up to about 1.1 µM and inactive = higher.

Legend:
Test in all cases: growth of human tumour cells (NCI), 48 h
[1] = tested on: NCI-H226
[2] = tested on: OVCAR-8
[3] = tested on: SW-620
[4] = tested on: UACC-257
[5] = tested on: SR
[6] = tested on: SF-268
[7] = tested on: MOLT-4
[8] = tested on: OVCAR-3
[9] = tested on: SK-OV-3
[10] = tested on: HOP-62
[11] = tested on: CAKI-1
[12] = tested on: CCRF-CEM
[13] = tested on: HL-60
[14] = tested on: HOP-92
[15] = tested on: A498

Measured: GI50

CCOC(=O)c1ccc(N2C(=O)Cc3ccccc3C2=O)cc1
inactive: [1] > 100 µM | [2] > 100 µM | [3] > 100 µM | [4] > 100 µM | [5] > 100 µM | [6] > 100 µM | [7] > 100 µM | [8] > 100 µM | [9] > 100 µM

O=S(=O)(/C=C/c1ccc(F)cc1)Cc1ccc(CS(=O)(=O)/C=C/c2ccc(F)cc2)cc1
inactive: [1] > 100 µM | [10] > 100 µM | [2] > 100 µM | [3] > 100 µM | [11] > 100 µM | [4] > 100 µM | [5] > 100 µM | [12] > 100 µM | [6] > 100 µM | [7] > 100 µM | [13] > 100 µM | [8] > 100 µM | [14] > 100 µM | [9] > 100 µM

CN(C)c1ccc(/C=C/C=C\c2cc(/C=C/C=C/c3ccc(N(C)C)cc3)[s+]c3ccccc23)cc1.[O-][Cl+3]([O-])([O-])[O-]
inactive: [1] > 100 µM | [10] > 100 µM | [2] 57.9 µM | [3] 63.4 µM | [11] 10 µM | [4] 59.4 µM | [6] > 100 µM | [7] > 100 µM | [13] 4.53 µM | [8] 31.8 µM | [15] > 100 µM | [9] 43.7 µM

CC(=O)OC1COC(N2C(=O)C(=O)c3cc(Br)ccc32)C(OC(C)=O)C1OC(C)=O (stereo not given)
inactive: [1] > 100 µM | [10] > 100 µM | [2] > 100 µM | [3] > 100 µM | [11] > 100 µM | [4] > 100 µM | [5] > 100 µM | [12] 71.3 µM | [6] > 100 µM | [7] 96.8 µM | [8] > 100 µM | [15] > 100 µM | [14] > 100 µM | [9] > 100 µM

CCC1CCc2c(c(=O)oc3c2cc(OC)c2cccc(OC)c23)C1 (stereo not given)
inactive: [1] > 100 µM | [10] 60.5 µM | [2] 50.1 µM | [11] > 100 µM | [4] 67.1 µM | [5] 38.1 µM | [12] 28.3 µM | [6] 90.2 µM | [7] 23.2 µM | [13] 17.5 µM | [15] > 100 µM | [9] > 100 µM

CCOC(=O)c1ncn2c1[nH]c(=S)c1ccccc12
inactive: [1] > 100 µM | [10] > 100 µM | [2] > 100 µM | [3] 22.9 µM | [11] > 100 µM | [4] > 100 µM | [12] 50.2 µM | [6] > 100 µM | [7] > 100 µM | [13] > 100 µM | [8] > 100 µM | [15] > 100 µM | [14] > 100 µM | [9] > 100 µM

[N-]=[N+]=Nc1cc(=O)oc2ccccc12
inactive: [1] > 100 µM | [10] > 100 µM | [2] > 100 µM | [3] > 100 µM | [11] > 100 µM | [4] > 100 µM | [5] 48.9 µM | [12] > 100 µM | [6] > 100 µM | [7] > 100 µM | [13] > 100 µM | [9] > 100 µM

CC12CCC3=C(CSC4=C3CSc3ccccc34)C1=CCCC2=O (stereo not given)
inactive: [1] 64.3 µM | [10] 20.4 µM | [2] 78.5 µM | [3] > 100 µM | [11] 35.1 µM | [5] 65.8 µM | [12] 69.8 µM | [6] > 100 µM | [7] 16.8 µM | [13] 73.1 µM | [8] 13.5 µM

CN1C(=O)CNS1(=O)=O
inactive: [1] > 100 µM | [10] > 100 µM | [2] > 100 µM | [3] > 100 µM | [4] > 100 µM | [5] > 100 µM | [12] > 100 µM | [6] > 100 µM | [7] > 100 µM | [13] > 100 µM | [8] > 100 µM | [15] > 100 µM | [14] > 100 µM | [9] > 100 µM

CCCO/N=[N+](\[O-])N(CC)CC
inactive: [1] > 100 µM | [10] > 100 µM | [2] > 100 µM | [3] > 100 µM | [4] > 100 µM | [5] > 100 µM | [12] > 100 µM | [6] > 100 µM | [7] > 100 µM | [13] > 100 µM | [8] > 100 µM | [15] > 100 µM | [14] > 100 µM | [9] > 100 µM

O=C1C2=C(CCC2)Nc2cccc3ncn1c23
inactive: [2] > 100 µM | [3] 70.1 µM | [4] 64.7 µM | [5] > 100 µM | [12] > 100 µM | [6] > 100 µM | [7] > 100 µM | [13] 15 µM | [9] 73.5 µM
